Our source for the Ki values is patent US6875761B2 (Eisai Co., Ltd., priority 1997, dated 2005).

Each structure is given as a SMILES string. Counter-ions that a name gives are not always drawn.

One test concerns the target T1, serotonin 2 receptor (Rattus norvegicus, UniProt P14842).
T1 construct: To the receptor fraction of the cerebral cortex were added a test compound and 0.3 nM of [^3H] ketanserin; from tissue; host or cells: rat cerebral cortex membrane fraction
The experiment in a line: Binding test on [3H] ketanserin, cerebral cortex receptor fraction. More on the design: species or system SD rats. The following applies: 0.3 nM [3H] ketanserin, 37° C. 15 min, read-out: 5HT2.

The next test deals with T2, serotonin 1A receptor (Rattus norvegicus, UniProt P19327).
T2 construct: To the receptor fraction of the hippocampus were added a test compound and 0.5 nM of [^3H]; 8-hydroxy-dipropylaminotetralin; from tissue; host or cells: rat hippocampus membrane fraction
T2 sequence (P19327 1-422): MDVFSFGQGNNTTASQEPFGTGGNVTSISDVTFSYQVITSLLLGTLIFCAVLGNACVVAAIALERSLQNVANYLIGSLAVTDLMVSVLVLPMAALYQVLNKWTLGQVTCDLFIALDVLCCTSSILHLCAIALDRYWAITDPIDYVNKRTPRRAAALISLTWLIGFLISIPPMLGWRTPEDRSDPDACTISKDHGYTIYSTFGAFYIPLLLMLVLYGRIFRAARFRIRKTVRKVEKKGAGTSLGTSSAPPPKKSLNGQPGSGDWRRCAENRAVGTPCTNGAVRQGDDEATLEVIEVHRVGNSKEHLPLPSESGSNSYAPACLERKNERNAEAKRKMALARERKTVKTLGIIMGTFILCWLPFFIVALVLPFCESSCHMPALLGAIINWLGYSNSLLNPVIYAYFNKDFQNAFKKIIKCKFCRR
The experiment in a line: Binding test on [3H] 8-hydroxy-dipropylaminotetralin, hippocampus receptor fraction. The following applies: rat hippocampus receptor fraction, 0.5 nM [3H] 8-OH-DPAT, room temperature 30 min; read-out: 5HT1. Also noted: species or system SD rats.

T1 sequence (P14842 whole entry): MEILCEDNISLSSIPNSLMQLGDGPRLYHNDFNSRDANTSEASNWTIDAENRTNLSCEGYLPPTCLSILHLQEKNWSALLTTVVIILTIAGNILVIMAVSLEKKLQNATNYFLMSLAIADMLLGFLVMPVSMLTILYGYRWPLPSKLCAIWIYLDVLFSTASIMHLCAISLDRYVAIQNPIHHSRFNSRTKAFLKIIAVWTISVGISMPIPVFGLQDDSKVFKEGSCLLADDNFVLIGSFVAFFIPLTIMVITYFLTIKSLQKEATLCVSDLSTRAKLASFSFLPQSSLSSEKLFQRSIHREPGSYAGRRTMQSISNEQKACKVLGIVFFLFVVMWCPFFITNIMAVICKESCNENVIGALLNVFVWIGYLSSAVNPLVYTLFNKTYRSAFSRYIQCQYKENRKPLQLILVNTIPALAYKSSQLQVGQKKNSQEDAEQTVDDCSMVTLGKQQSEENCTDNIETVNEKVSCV
Protocol for serotonin 2 receptor: Methysergide maleate was dissolved in distilled water before using.
Use was made of SD rats aged 6 to 8 weeks.
The rats were sacrificed by dcapitation to extirpate the cerebra.
Each mixture was homogenized by using a Teflon glass homogenizer and centrifuged as 1,000× g for 10 min. The supernatant thus obtained was further centrifuged at 20,000× g for 20 min. […] After centrifuging at 20,000× g for 20 min, the obtained precipitate was further suspended and centrifuged twice each in the same manner. […] This receptor fraction was stored at −80° C. until using.
To the receptor fraction of the cerebral cortex were added a test compound and 0.3 nM of [^3H] ketanserin and the resultant mixture was incubated at 37° C. for 15 min. Next, it was filtered through a glass filter with the use of a cell harvester. After washing the glass filter with 50 mM Tris hydrochloride (pH 7.4), the radioactivity of the receptor was measured with a liquid scintillation counter. The binding detected in the presence of 1 μM of methysergide was referred to as the nonspecific binding.
IC50 was calculated by the probit method, while Ki was determined in accordance with the following formula: Ki=IC50(1+c/Kd) wherein c represents the concentration of the radioisotope-labeled compound, and Kd represents the dissociation constant of the radioisotope-labeled compound with respect to the receptor determined by Scatchard's analysis.

In the case of `CCN1CCN(c2nc(-c3ccc(CCCF)nc3)cc3ccccc23)CC1` [Example 133, 1-(1-Ethylpiperazin-4-yl)-3-[2-(3-Fluoropropyl)Pyridin-5-yl]Isoquinoline], the Ki on serotonin 2 receptor was determined as 6.2 nM; at serotonin 1A receptor it was 2.9 nM.
The corresponding values for `CCN1CCN(c2nc(-c3ccc(CCCO)cc3)cc3cccnc23)CC1` [Example 247, 8-(1-ethylpiperazin-4-yl)-6-[4-(3-hydroxypropyl)phenyl]-1,7-naphthyridine Dihydrochloride] are 28.7 nM and 25.1 nM.
For `CCN1CCN(c2nc(-c3ccc(N4CCN(C(C)=O)CC4)cc3)cc3ccccc23)CC1` [Example 100, 3-[4-(4-Acetylpiperazin-1-yl)phenyl]-1-(4-ethylpiperazin-1-yl)isoquinoline Trihydrochloride], in that order: 5.6 nM and 12.7 nM.
The corresponding values for `CCN1CCN(c2nc(-c3ccc(CCCO)c(C#N)c3)cc3ccsc23)CC1` [Example 262, 5-[4-(3-hydroxypropyl)-3-cyanophenyl]-7-(4-ethylpiperazin-1-yl)thieno[2,3-c]pyridine Oxalate] are 0.25 nM and 9.04 nM.
Take `CCCN(C)S(=O)(=O)c1ccc(-c2cc3ccccc3c(N3CCN(CC)CC3)n2)cc1` [Example 358, 1-(4-ethylpiperazin-1-yl)-3-[4-(N-methyl-N-propylsulfamoyl)phenyl]isoquinoline dihydrochloride]: the Ki on serotonin 2 receptor was found to be 19.1 nM; on serotonin 1A receptor, 6.4 nM.
Turning to `CCN1CCN(c2nc(/C=C/c3ccccc3)cc3ccccc23)CC1` [Example 189, 1-(1-Ethylpiperazin-4-Yl)-3-(Trans-2-Phenylethenyl)Isoquinoline Dihydrochloride], the Ki at serotonin 2 receptor was 0.44 nM; on serotonin 1A receptor, 37.2 nM.
As for `CCN1CCN(c2nc(/C=C/c3ccc(S(C)(=O)=O)cc3)cc3ccccc23)CC1` [Example 201, 3-[(E)-2-(4-Methylsulfonylphenyl)Ethenyl]-1-(4-Ethylpiperazin-1-Yl)Isoquinoline Hydrochloride], the Ki is 2.96 nM on serotonin 2 receptor and 35.9 nM on serotonin 1A receptor.
The corresponding values for `CCN1CCN(c2nc(-c3ccc(CCCO)c(Cl)c3)cc3ccccc23)CC1` [Example 30, 3-[3-chloro-4-(3-hydroxypropyl)phenyl]-1-(4-ethylpiperazin-1-yl)isoquinoline hydrochloride] are 6.3 nM and 10.7 nM.
For `CCN1CCN(c2nc(/C=C/c3ccc(CS(C)(=O)=O)cc3)cc3ccccc23)CC1` [Example 203, 3-[(E)-2-(4-Methylsulfonylmethylphenyl)Ethenyl]-1-(4-Ethylpiperazin-1-Yl)Isoquinoline Oxalate], in that order: 0.52 nM and 5.5 nM.
In the case of `CCC(O)c1cc(-c2cc3ccccc3c(N3CCN(CC)CC3)n2)cs1` (centres unmarked) [Example 164, 1-(1-ethylpiperazin-4-yl)-3-[2-(1-hydroxypropyl)thiophen-4-yl]isoquinoline hydrochloride], the Ki was found to be 11.9 nM on serotonin 2 receptor and 9.38 nM at serotonin 1A receptor.
With `CCC(C)NS(=O)(=O)c1ccc(-c2cc3ccccc3c(N3CCN(CC)CC3)n2)cc1` (centres unmarked) [Example 360, 1-(4-ethylpiperazin-1-yl)-3-{4-[N-(1-methylpropyl)sulfamoyl]phenyl}isoquinoline dihydrochloride], the results for the Ki at serotonin 2 receptor and at serotonin 1A receptor were 1.5 nM and 2 nM, respectively.
For the compound `CCNS(=O)(=O)c1ccc(-c2cc3ccccc3c(N3CCN(CC)CC3)n2)cc1` [Example 357, 1-(4-ethylpiperazin-1-yl)-3-[4-(N-ethylsulfamoyl)phenyl]isoquinoline dihydrochloride], the results for the Ki on serotonin 2 receptor and on serotonin 1A receptor were 0.58 nM and 2.8 nM, respectively.
Consider `CCN1CCN(c2nc(-c3ccc(CC(C)O)cc3)cc3ccsc23)CC1` (centres unmarked) [Example 436, 7-(4-ethylpiperazin-1-yl)-5-[4-(2-hydroxypropyl)phenyl]thieno[2,3-c]pyridine dihydrochloride], for which the results for the Ki at serotonin 2 receptor and on serotonin 1A receptor were 26 nM and 8.64 nM, respectively.
The corresponding values for `CCN1CCN(c2nc(-c3csc(CO)c3)cc3ccccc23)CC1` [Example 161, 1-(1-ethylpiperazin-4-yl)-3-(2-hydroxymethylthiophen-4-yl)isoquinoline dihydrochloride] are 23.8 nM and 10.7 nM.
For `CCN1CCN(c2nc(-c3ccc(N4CCOCC4)cn3)cc3ccccc23)CC1` [Example 148, 1-(4-ethylpiperazin-1-yl)-3-[5-(morpholin-4-yl)pyridin-2-yl]isoquinoline trihydrochloride], in that order: 7.85 nM and 6.33 nM.
For `CCN1CCN(c2nc(-c3ccc(OCC(N)=O)cc3)cc3ccccc23)CC1` [Example 338, 1-(4-ethylpiperazin-1-yl)-3-(4-carbamoylmethoxyphenyl)isoquinoline dihydrochloride], in that order: 61.9 nM and 14.1 nM.
Regarding `CCN1CCN(c2nc(-c3ccc(CCCO)nc3)cc3ccccc23)CC1` [Example 135, 1-(1-Ethylpiperazin-4-yl)-3-[2-(3-Hydroxypropyl)Pyridin-5-yl]Isoquinoline], the Ki at serotonin 2 receptor was found to be 18.9 nM; at serotonin 1A receptor, 3.4 nM.
The corresponding values for `CCN1CCN(c2nc(-c3ccc(S(=O)(=O)CCCOC)cc3)cc3ccccc23)CC1` [Example 350, 1-(4-ethylpiperazin-1-yl)-3-{4-[(3-methoxypropyl)sulfonyl]phenyl}isoquinoline] are 16.7 nM and 2.6 nM.
For `CCN1CCN(c2nc(/C=C/c3ccc(OCCO)cc3)cc3ccoc23)CC1` [Example 307], in that order: 11.5 nM and 7.7 nM.
The corresponding values for `CCNC(=O)Cc1ccc(-c2cc3ccccc3c(N3CCN(CC)CC3)n2)cc1` [Example 87, 3-(4-Ethylaminocarbonylmethylphenyl)-1-(4-ethylpiperazin-1-yl)isoquinoline Hydrochloride] are 17 nM and 16.9 nM.
With `CCN1CCN(c2nc(-c3cccc(OCCO)c3)cc3ccsc23)CC1` [Example 258, 7-(1-ethylpiperazin-4-yl)-5-[3-(2-hydroxyethoxy)phenyl]thieno[2,3-c]pyridine Dihydrochloride], the Ki on serotonin 2 receptor came to 35.1 nM; at serotonin 1A receptor, 24.7 nM.
For `CCN1CCN(c2nc(-c3ccc(OC)cc3)cc3cscc23)CC1` [Example 277, 4-(4-ethylpiperazin-1-yl)-6-(4-methoxyphenyl)thieno[3,4-c]pyridine oxalate], in that order: 52.1 nM and 71.4 nM.
As for `CCCNC(=O)Cc1ccc(-c2cc3ccccc3c(N3CCN(CC)CC3)n2)cc1` [Example 88, 3-(4-Propylaminocarbonylmethylphenyl)-1-(4-ethylpiperazin-1-yl)isoquinoline Hydrochloride], the Ki at serotonin 2 receptor came to 11.7 nM; at serotonin 1A receptor, 9.4 nM.
For the compound `CCN1CCN(c2nc(-c3ccc(CCC(C)O)cc3)cc3ccsc23)CC1` (centres unmarked) [Example 440, 7-(4-ethylpiperazin-1-yl)-5-[4-(3-hydroxybutyl)phenyl]thieno[2,3-c]pyridine dihydrochloride], the figures for the Ki on serotonin 2 receptor and on serotonin 1A receptor were 0.72 nM and 21.8 nM, respectively.
The corresponding values for `CCN1CCN(c2nc(Sc3ccccc3)cc3ccccc23)CC1` [Example 374, 1-(4-ethylpiperazin-1-yl)-3-(phenylthio)isoquinoline oxalate] are 24.7 nM and 44.5 nM.
